According to patent US12459938B2, “ORAI channel inhibitors” (Beth Israel Deaconess Medical Center, Inc., priority 2019, dated 2025):

Each molecule was assayed on NFAT (assay: NFAT activation assay (luciferase reporter, PMA and ionomycin)). Settings: Homo sapiens; 10 μM compound; Jurkat cells; 15 nM PMA and 0.5 μM ionomycin; 18 hours; read-out: Activity 10 μM (% inhibition of NFAT luciferase luminescence).
Format: cell-based
Description: Jurkat cells (BPS Bioscience catalog No. 60621) were seeded at 40,000 cells per well into white clear-bottom 96-well microplate in 80 μl of growth medium without Geneticin. 10 μl of testing compounds (final 10 μM) were added to each well and preincubated with cells for half an hour. Then 10 μl of PMA and ionomycin mixture were added to each well to make the final concentration of 15 nM PMA and 0.5 μM ionomycin. Cells were incubated at 37° C. and 5% CO2 incubator for 18 hours. After treatment, cells were lysed and the luciferase assay was performed using ONE-Step luciferase assay system by adding 100 μl of One-Step Luciferase reagent (BPS Bioscience catalog No. 60690) per well followed by rocking at room temperature for about 30 minutes. Luminescence was measured using a luminometer (BioTek Synergym™ 2 microplate reader). The percent luminescence in the presence of each compound was calculated according to the following equation: % Luminescence=(L−Lb)/(Lt−Lb), where L=the luminescence intensity in the presence of the compound, Lb=the luminescence intensity in the absence of cells, and Lt=the luminescence intensity in the absence of the compound. The percent inhibition was calculated by: % inhibition=100−(% Luminescence).

| Structure (SMILES) | inhibition at 10 µM [%] |
| --- | --- |
| O=C(Nc1ccncc1F)c1cn(CC2COC2)c2ccccc12 [Example 12, N-(3-fluoropyridin-4-yl)-1-(oxetan-3-ylmethyl)-1H-indole-3-carboxamide] | < 25 |
| O=C(Nc1ccncc1F)c1cn(CC2CC2)c2cnccc12 [Example 16, 1-(cycloproylmethyl)-N-(3-fluoropyridin-4-yl)-1H-pyrrolo[2,3-c]pyridine-3-carboxamide] | < 25 |
| O=C(Nc1ccncc1F)c1nn(CC2CC2)c2ccc(F)cc12 [Example 37, 1-(cyclopropylmethyl)-5-fluoro-N-(3-fluoropyridin-4-yl)-1H-indazole-3-carboxamide] | > 75 |
| O=C(Nc1ccn(CC2CC2)n1)c1ccncc1F [Example 28, N-(1-(cyclopropylmethyl)-1H-pyrazol-3-yl)-3-fluoroisonicotinamide] | < 25 |
| Cc1cnccc1NC(=O)c1nn(CC2CC2)c2c1CCCC2 [Example 42, 1-(cyclopropylmethyl)-N-(3-methylpyridin-4-yl)-4,5,6,7-tetrahydro-1H-indazole-3-carboxamide] | > 75 |
| Cc1cnccc1NC(=O)c1nn(CC2CC2)c2c1CCC2 [Example 41, 1-(cycloproylmethyl)-N-(3-methylpyridin-4-yl)-1,4,5,6-tetrahydrocyclopenta[c]pyrazole-3-carboxamide] | 51 to 75 |
| O=C(Nc1ccncc1F)c1nn(CC2CC2)c2cc(Cl)ccc12 [Example 35, 6-chloro-1-(cyclopropylmethyl)-N-(3-fluoropyridin-4-yl)-1H-indazole-3-carboxamide] | 51 to 75 |
| Cc1cnccc1NC(=O)c1ccn(CC2CC2)n1 [Example 19, 1-(cyclopropylmethyl)-N-(3-methylpyridin-4-yl)-1H-pyrazole-3-carboxamide] | 51 to 75 |
| Fc1cnccc1NCc1cn(CC2CC2)c2ccccc12 [Example 15, N-((1-(cyclopropylmethyl)-1H-indol-3-yl)methyl)-3-fluoropyridin-4-amine] | 26 to 50 |
| Cc1cnccc1C(=O)Nc1ccn(CC2CC2)n1 [Example 30, N-[1-(cyclopropylmethyl)-1H-pyrazol-3-yl]-3-methylpyridine-4-carboxamide] | < 25 |
| O=C(Nc1ccncc1F)c1nn(CC2CC2)c2c(F)cccc12 [Example 39, 1-(cyclopropylmethyl)-7-fluoro-N-(3-fluoropyridin-4-yl)-1H-indazole-3-carboxamide] | 51 to 75 |
| O=C(Nc1ccncc1F)c1nn(CC2CC2)c2c1CCCC2 [Example 25, 1-(cyclopropylmethyl)-N-(3-fluoropyridin-4-yl)-4,5,6,7-tetrahydro-1H-indazole-3-carboxamide] | > 75 |
| O=C(Nc1ccncc1F)c1nn(CC2CCC2)c2ccccc12 [Example 10, 1-(cyclobutylmethyl)-N-(3-fluoropyridin-4-yl)-1H-indazole-3-carboxamide] | > 75 |
| Cc1cnccc1NC(=O)c1nn(CC2CCC2)c2c1CCCC2 [Example 40, 1-(cyclobutylmethyl)-N-(3-methylpyridin-4-yl)-4,5,6,7-tetrahydro-1H-indazole-3-carboxamide] | > 75 |
| Cc1c(C(=O)Nc2ccncc2F)c2ccccc2n1CC1CC1 [Example 43, 1-(cyclopropylmethyl)-N-(3-fluoropyridin-4-yl)-2-methyl-1H-indole-3-carboxamide] | > 75 |
| O=C(Nc1ccn(CC2CC2)n1)c1c(F)cncc1F [Example 27, N-(1-(cyclopropylmethyl)-1H-pyrazol-3-yl)-3,5-difluoroisonicotinamide] | 26 to 50 |

| Structure (SMILES) | inhibition at 10 µM [%] |
| --- | --- |
| O=C(Nc1c(F)cccc1F)c1ccn(CC2CC2)n1 [Example 21, 1-(cyclopropylmethyl)-N-(2,6-difluorophenyl)-1H-pyrazole-3-carboxamide] | < 25 |
| O=C(Nc1ccncc1F)c1cn(CC2CC2)c2ccncc12 [Example 17, 1-(cyclopropylmethyl)-N-(3-fluoropyridin-4-yl)-1H-pyrrolo[3,2-c]pyridine-3-carboxamide] | < 25 |
| Cc1ccc2c(c1)c(C(=O)Nc1ccncc1F)nn2CC1CC1 [Example 34, 1-(cyclopropylmethyl)-N-(3-fluoropyridin-4-yl)-5-methyl-1H-indazole-3-carboxamide] | > 75 |
| O=C(Nc1ccncc1F)c1nn(CC2CCC2)c2c1CCCC2 [Example 33, 1-(cyclobutylmethyl)-N-(3-fluoropyridin-4-yl)-4,5,6,7-tetrahydro-1H-indazole-3-carboxamide] | > 75 |
| O=C(Nc1c(F)cncc1F)c1ccn(CC2CC2)n1 [Example 22, 1-(cyclopropylmethyl)-N-(3,5-difluoropyridin-4-yl)-1H-pyrazole-3-carboxamide] | < 25 |
| O=C(Nc1ccncc1F)c1nn(CC2CC2)c2cc(F)ccc12 [Example 38, 1-(cyclopropylmethyl)-6-fluoro-N-(3-fluoropyridin-4-yl)-1H-indazole-3-carboxamide] | > 75 |
| Cc1cnccc1NC(=O)c1nn(CC2CCC2)c2ccccc12 [Example 11, 1-(cyclobutylmethyl)-N-(3-methylpyridin-4-yl)-1H-indazole-3-carboxamide] | > 75 |
| O=C(Nc1ccncc1F)c1ccn(CC2CC2)n1 [Example 20, 1-(cyclopropylmethyl)-N-(3-fluoropyridin-4-yl)-1H-pyrazole-3-carboxamide] | 51 to 75 |
| O=C(Nc1ccncc1F)c1nn(CC2CC2)c2ncccc12 [Example 31, 1-(cyclopropylmethyl)-N-(3-fluoropyridin-4-yl)-1H-pyrazolo[3,4-b]pyridine-3-carboxamide] | 51 to 75 |
| O=C(Nc1c(F)cccc1F)c1nn(CC2CC2)c2c1CCCC2 [Example 26, 1-(cyclopropylmethyl)-N-(2,6-difluorophenyl)-4,5,6,7-tetrahydro-1H-indazole-3-carboxamide] | 51 to 75 |
| O=C(Nc1ccncc1F)c1nn(CC2CC2)c2c1CCC2 [Example 32, 1-(cycloproylmethyl)-N-(3-fluoropyridin-4-yl)-1,4,5,6-tetrahydrocyclopenta[c]pyrazole-3-carboxamide] | > 75 |
| O=C(Nc1ccncc1F)c1nn(CC2CC2)c2ccc(Br)cc12 [Example 36, 1-(cyclopropylmethyl)-5-bromo-N-(3-fluoropyridin-4-yl)-1H-indazole-3-carboxamide] | 51 to 75 |
| CN(C(=O)c1cn(CC2CC2)c2ccccc12)c1ccncc1F [Example 14, 1-(cyclopropylmethyl)-N-(3-fluoropyridin-4-yl)-N-methyl-1H-indole-3-carboxamide] | < 25 |
| O=C(Nc1ccncc1F)c1cn(CC2CC2)c2ncccc12 [Example 5, 1-(cycloproylmethyl)-N-(3-fluoropyridin-4-yl)-1H-pyrrolo[2,3-b]pyridine-3-carboxamide] | 26 to 50 |
| Cc1cnccc1NC(=O)c1nn(CC2CC2)c2ccccc12 [Example 6, 1-(cyclopropylmethyl)-N-(3-methylpyridin-4-yl)-1H-indazole-3-carboxamide] | > 75 |
| O=C(Nc1ccncc1F)c1nn(CC2CC2)c2ccccc12 [Example 23, 1-(cyclopropylmethyl)-N-(3-fluoropyridin-4-yl)-1H-indazole-3-carboxamide] | > 75 |
